Assay results: patent publication US7189720B2 (H. Lundbeck A/S, priority 1999, dated 2007)

The compounds below were run against T1, human Y5 receptor (Homo sapiens, UniProt Q15761) (assay: Radioligand binding to membranes, cloned human Y5 receptor). Conditions: Table 1; read-out: Ki (nM) hNPY-5.
T1 construct: expressed in transfected cells; host or cells: mouse fibroblast LM(tk-) cells, e.g. L-hY5-7 (ATCC CRL-11995)
T1 sequence (Q15761 1-445): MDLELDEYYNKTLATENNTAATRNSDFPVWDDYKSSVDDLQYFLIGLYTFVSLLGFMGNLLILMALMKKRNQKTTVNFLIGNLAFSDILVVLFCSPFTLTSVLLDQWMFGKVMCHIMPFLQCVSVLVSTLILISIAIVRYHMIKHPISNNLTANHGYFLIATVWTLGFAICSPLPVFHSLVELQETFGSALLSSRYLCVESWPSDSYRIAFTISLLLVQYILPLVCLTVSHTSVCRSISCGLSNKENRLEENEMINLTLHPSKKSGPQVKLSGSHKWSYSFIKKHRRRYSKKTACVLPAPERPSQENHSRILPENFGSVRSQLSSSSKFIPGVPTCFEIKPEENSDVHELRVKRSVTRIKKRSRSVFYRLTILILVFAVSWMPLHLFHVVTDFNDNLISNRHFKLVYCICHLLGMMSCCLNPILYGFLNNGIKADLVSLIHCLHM

Ki [nM]	SMILES
135	CC(C)Nc1nc(NCC2CCC(CNS(=O)(=O)c3cccc4ccccc34)CC2)nc(N2C[C@@H](C)O[C@@H](C)C2)n1 (stereo partly drawn) [Example 25, N1-{[4-({[4-[(2R,6S)-2,6-dimethyl-1,4-oxazinan-4-yl]-6-(isopropylamino)-1,3,5-triazin-2-yl]amino}methyl)cyclohexyl]methyl}-1-naphthalenesulfonamide]
86	CC(C)Nc1nc(NCC2CCC(CNS(=O)(=O)c3cccc4ccccc34)CC2)nc(N(C)CCO)n1 (centres unmarked) [Example 26, N1-[4-([4-[(2-hydroxyethyl)(methyl)amino]-6-(isopropylamino)-1,3,5-triazin-2-yl]aminomethyl)cyclohexyl]methyl-1-naphthalenesulfonamide]

Further lines, the compound ahead of its results:

SMILES	Ki [nM]
CC(C)Nc1nc(NCC2CCC(CNS(=O)(=O)c3cccc4ccccc34)CC2)nc(N2CCOCC2)n1 (centres unmarked) [Example 24, N1-[4-([4-(isopropylamino)-6-morpholino-1,3,5-triazin-2-yl]aminomethyl)cyclohexyl]methyl-1-naphthalenesulfonamide]	40
CC(=O)N1CCN(c2nc(NCC3CCC(CNS(=O)(=O)c4cccc5ccccc45)CC3)nc(NC(C)C)n2)CC1 (centres unmarked) [Example 27, N1-{[4-({[4-(4-acetylpiperazino)-6-(isopropylamino)-1,3,5-triazin-2-yl]amino}methyl)cyclohexyl]methyl}-1-naphthalenesulfonamide]	31
CC(C)Nc1nc(NCC2CCC(CNS(=O)(=O)c3cccc4ccccc34)CC2)nc(N2CCN(C(C)C)CC2)n1 (centres unmarked) [Example 28, N1-{[4-({[4-(isopropylamino)-6-(4-isopropylpiperazino)-1,3,5-triazin-2-yl]amino}methyl)cyclohexyl]methyl}-1-naphthalenesulfonamide]	22

Same assay, conditions: Table 2; read-out: Ki (nM) hNPY-5

Ki [nM]	SMILES
50	CCNc1nc(NCC)nc(NCC2CCC(CNS(=O)(=O)c3ccc(C(C)(C)C)cc3)CC2)n1 (centres unmarked) [Example 29, N1-[4-([4,6-di(ethylamino)-1,3,5-triazin-2-yl]aminomethyl)cyclohexyl]methyl-4-(tert-butyl)-1-benzenesulfonamide]
40	CCNc1nc(NCC)nc(NCC2CCC(CNS(=O)(=O)c3ccc(F)cc3)CC2)n1 (centres unmarked) [Example 30, N1-[4-([4,6-di(ethylamino)-1,3,5-triazin-2-yl]aminomethyl)cyclohexyl]methyl-4-fluoro-1-benzenesulfonamide]
35	CCNc1nc(NCC)nc(NCC2CCC(CNS(=O)(=O)c3ccccc3F)CC2)n1 (centres unmarked) [Example 32, N1-[4-([4,6-di(ethylamino)-1,3,5-triazin-2-yl]aminomethyl)cyclohexyl]methyl-2-fluoro-1-benzenesulfonamide]
82	CCNc1nc(NCC)nc(NCC2CCC(CNS(=O)(=O)c3ccc(OC)cc3)CC2)n1 (centres unmarked) [Example 35, N1-[4-([4,6-di(ethylamino)-1,3,5-triazin-2-yl]aminomethyl)cyclohexyl]methyl-4-methoxy-1-benzenesulfonamide]
28	CCNc1nc(NCC)nc(NCC2CCC(CNS(=O)(=O)c3ccc(C)cc3)CC2)n1 (centres unmarked) [Example 39, N1-[4-([4,6-di(ethylamino)-1,3,5-triazin-2-yl]aminomethyl)cyclohexyl]methyl-4-methyl-1-benzenesulfonamide]
13	CCNc1nc(NCC)nc(NCC2CCC(CNS(=O)(=O)c3cccc4cccnc34)CC2)n1 (centres unmarked) [Example 41, N8-[4-([4,6-di(ethylamino)-1,3,5-triazin-2-yl]aminomethyl)cyclohexyl]methyl-8-quinolinesulfonamide]

More lines, now with the values behind:

SMILES	Ki [nM]
CCNc1nc(NCC)nc(NCC2CCC(CNS(=O)(=O)c3cc(C)ccc3OC)CC2)n1 (centres unmarked) [Example 31, N1-[4-([4,6-di(ethylamino)-1,3,5-triazin-2-yl]aminomethyl)cyclohexyl]methyl-2-methoxy-5-methyl-1-benzenesulfonamide]	25
CCNc1nc(NCC)nc(NCC2CCC(CNS(=O)(=O)c3ccccc3C)CC2)n1 (centres unmarked) [Example 33, N1-[4-([4,6-di(ethylamino)-1,3,5-triazin-2-yl]aminomethyl)cyclohexyl]methyl-2-methyl-1-benzenesulfonamide]	22
CCNc1nc(NCC)nc(NCC2CCC(CNS(=O)(=O)c3cccnc3)CC2)n1 (centres unmarked) [Example 34, N3-[4-([4,6-di(ethylamino)-1,3,5-triazin-2-yl]aminomethyl)cyclohexyl]methyl-3-pyridinesulfonamide]	427
CCNc1nc(NCC)nc(NCC2CCC(CNS(=O)(=O)c3oc(C)nc3C)CC2)n1 (centres unmarked) [Example 36, N5-[4-([4,6-di(ethylamino)-1,3,5-triazin-2-yl]aminomethyl)cyclohexyl]methyl-2,4-dimethyl-1,3-oxazole-5-sulfonamide]	71
CCNc1nc(NCC)nc(NCC2CCC(CNS(=O)(=O)c3cn(C)cn3)CC2)n1 (centres unmarked) [Example 38, N4-[4-([4,6-di(ethylamino)-1,3,5-triazin-2-yl]aminomethyl)cyclohexyl]methyl-1-methyl-1H-4-imidazolesulfonamide]	313
CCNc1nc(NCC)nc(NCC2CCC(CNS(=O)(=O)c3ccc4nsnc4c3)CC2)n1 (centres unmarked) [Example 40, N5-[4-([4,6-di(ethylamino)-1,3,5-triazin-2-yl]aminomethyl)cyclohexyl]methyl-2,1,3-benzothiadiazole-5-sulfonamide]	5
CCNc1nc(NCC)nc(NCC2CCC(CNS(C)(=O)=O)CC2)n1 (centres unmarked) [Example 42, N-[4-([4,6-di(ethylamino)-1,3,5-triazin-2-yl]aminomethyl)cyclohexyl]methylmethanesulfonamide]	3070

Same assay, conditions: Table 3; read-out: Ki (nM) hNPY-5

Ki [nM]	SMILES
3540	CC(C)Nc1nc(Cl)nc(NCC2CCC(CNS(=O)(=O)c3ccc(C(C)(C)C)cc3)CC2)n1 (centres unmarked) [Example 51, N1-[4-([4-chloro-6-(isopropylamino)-1,3,5-triazin-2-yl]aminomethyl)cyclohexyl]methyl-4-(tert-butyl)-1-benzenesulfonamide]
101	O=S(=O)(NCC1CCC(CNc2nc(NC3CC3)nc(N3CCCC3)n2)CC1)c1ccc(F)cc1 (centres unmarked) [Example 52, N1-[4-([4-(cyclopropylamino)-6-tetrahydro-1H-1-pyrrolyl-1,3,5-triazin-2-yl]aminomethyl)cyclohexyl]methyl-4-fluoro-1-benzenesulfonamide]
209	O=S(=O)(NCC1CCC(CNc2nc(NC3CC3)nc(-c3ccccn3)n2)CC1)c1ccc(F)cc1 (centres unmarked) [Example 55, N1-[4-([4-(cyclopropylamino)-6-(2-pyridyl)-1,3,5-triazin-2-yl]aminomethyl)cyclohexyl]methyl-4-fluoro-1-benzenesulfonamide]

More lines, now with the values behind:

SMILES	Ki [nM]
CC(C)Nc1nc(NCC2CCC(CNS(=O)(=O)N3CCCC3)CC2)nc(N2CCCC2)n1 (centres unmarked) [Example 43, N1-[4-([4-(isopropylamino)-6-tetrahydro-1H-1-pyrrolyl-1,3,5-triazin-2-yl]aminomethyl)cyclohexyl]methyl-1-pyrrolidinesulfonamide]	43
CC(C)Nc1nc(NCC2CCC(CNS(=O)(=O)N3CCOCC3)CC2)nc(N2CCOCC2)n1 (centres unmarked) [Example 44, N4-[4-([4-(isopropylamino)-6-morpholino-1,3,5-triazin-2-yl]aminomethyl)cyclohexyl]methyl-4-morpholinesulfonamide]	295
CC(C)Nc1nc(NCC2CCC(CNS(=O)(=O)N3CCCCC3)CC2)nc(N2CCCCC2)n1 (centres unmarked) [Example 45, N1-[4-([4-(isopropylamino)-6-piperidino-1,3,5-triazin-2-yl]aminomethyl)cyclohexyl]methyl-1-piperidinesulfonamide]	59
CC(C)(C)c1ccc(S(=O)(=O)NCC2CCC(CNc3nc(N4CCCC4)nc(N4CCCC4)n3)CC2)cc1 (centres unmarked) [Example 46, N1-[(4-[(4,6-ditetrahydro-1H-1-pyrrolyl-1,3,5-triazin-2-yl)amino]methylcyclohexyl)methyl]-4-(tert-butyl)-1-benzenesulfonamide]	68
CC(C)Nc1nc(NCC2CCC(CNS(=O)(=O)NC3CC3)CC2)nc(NC2CC2)n1 (centres unmarked) [Example 47, N-cyclopropyl-N′-[4-([4-(cyclopropylamino)-6-(isopropylamino)-1,3,5-triazin-2-yl]aminomethyl)cyclohexyl]methylsulfamide]	359
CC(C)Nc1nc(NCC2CCC(CNS(=O)(=O)N(C)C)CC2)nc(NC2CC2)n1 (centres unmarked) [Example 48, N′-[4-([4-(cyclopropylamino)-6-(isopropylamino)-1,3,5-triazin-2-yl]aminomethyl)cyclohexyl]methyl-N,N-dimethylsulfamide]	192
CN(C)S(=O)(=O)NCC1CCC(CNc2nc(N3CCOCC3)nc(N3CCOCC3)n2)CC1 (centres unmarked) [Example 50, N′-[(4-[(4,6-dimorpholino-1,3,5-triazin-2-yl)amino]methylcyclohexyl)methyl]-N,N-dimethylsulfamide]	3510
CN(C)S(=O)(=O)NCC1CCC(CNc2nc(Cl)nc(Cl)n2)CC1 (centres unmarked) [Example 53, N′-((4-(((4,6-dichloro-1,3,5-triazin-2-yl)amino)methyl)cyclohexyl)methyl)-N,N-dimethylsulfamide]	20700

Same assay, conditions: Table 4; read-out: Ki (nM) hNPY-5

Ki [nM]	SMILES
94400	CCNc1nc(NCC)nc(NCCCCCn2cccn2)n1 [Example 56, N2,N4-diethyl-N6-[5-(1H-1-pyrazolyl)pentyl]-1,3,5-triazine-2,4,6-triamine]
> 100000	CCNc1nc(NCC)nc(NCCCn2ccnc2)n1 [Example 57, N2,N4-diethyl-N6-[3-(1H-1-imidazolyl)propyl]-1,3,5-triazine-2,4,6-triamine]
> 100000	CCNc1nc(NCC)nc(NCc2ccccn2)n1 [Example 58, N2,N4-diethyl-N6-(2-pyridylmethyl)-1,3,5-triazine-2,4,6-triamine]
